The results in this text go back to publication PMC7461568, “Novel Cyclic Lipopeptide Antibiotics: Effects of Acyl Chain Length and Position” (International Journal of Molecular Sciences, 2020).

Molecules are shown by their SMILES. ≈ marks a conversion by molar mass, not a printed value. Where a SMILES comes first, the peptide text is derived from it. [ ]: non-standard residue; d: D form. The star is where a group is joined. 2Nal = N[C@@H](Cc1ccc2ccccc2c1)C(=O)O; Octanoyl = CCCCCCCC(=O)*; Dab = NCC[C@H](N)C(=O)O; AEEA = NCCOCCOCC(=O)O

In one series the test system is S. aureus ATCC 29213. The experiment in a line: microbe, parasite or virus in culture. It is filed as cell-based, Staphylococcus aureus. The conditions noted are these: S. aureus ATCC 29213; MHB-II, inoculum 5 × 10^5 CFU/mL, 37 °C, 18–24 h, visual read-out, triplicate. The protocol:
In the original report on S3(B), MIC experiments were carried out by using non-cation-adjusted MHB-I media. To this, bovine serum albumin (BSA) and acetic acid were added. The rationale for choosing a medium without cations is that cation-adjusted media (MHB-II) in some cases causes substantial inhibition of the activity of cationic peptides. Furthermore, some peptides are at risk of precipitation when diluted into MHB medium, which can be avoided via the addition of BSA and acetic acid. However, the use of MHB-II is favorable to imitate the in vivo conditions as much as possible. Both media were tested with and without the addition of BSA and acetic acid by trial and error. […]
Cation-adjusted Mueller-Hinton broth (MHB-II) media (BD BBLTM Beef extract powder, BD BactoTMCasamino acids, and DIFCO soluble starch was from Becton, Dickinson and Company©, Franklin Lakes, NJ, USA). […] A VersaMaxTM Tunable Microplate Reader (Molecular Devices LLC, Sunnyvale, CA, USA) was used and the data were evaluated on a Softmax® Pro (Molecular Devices LLC).
The MIC experiments were performed according to a protocol adapted from Wiegand et al., with minor modifications. The MICs were determined in triplicate. […] The MIC values were visually evaluated, and the MIC was set to the lowest concentration […] based on triplicate measurements. […]

Series [1] is described as follows: Hydrophobicity by analytical RP-HPLC (%B at peak elution). Type of series: physicochemical. The settings on record: chromatographic, percentage of mobile phase B at the peak elution time. The text has this: To investigate the effect of attaching fatty acids to a macrocycle, fatty acid tails of different lengths were used. When the carbon chain was elongated, the hydrophobicity of the peptide was increased gradually. Herein, the hydrophobicity is expressed as the percentage of mobile phase B at the peak elution time on an RP-HPLC system.

For a further series, the system named is P. aeruginosa ATCC 27853. The protocol:
The MIC constitutes a limited measure for antimicrobial activity. It indicates whether or not AMPs in different concentrations are able to prevent visible growth of bacteria.
Time-kill experiments were performed on balanced exponentially growing cultures of P. aeruginosa ATCC 27853. We used balanced cultures as described in Oddo et al.. Briefly, overnight cultures were prepared in MHB-II broth at 37 °C with shaking. Overnight cultures were back-diluted and grown exponentially for no less than 8–10 generations before experimentation. When experiments were done, exponentially growing cultures were back-diluted to an OD600 = 0.0005 approximately 5 × 10^5 CFU, into fresh MHB-II heated to 37 °C. Samples (250 μL) were taken at time points 0, 1, 3, 5, and 24 h. Samples were spun down at 8000× g for 5 min and washed in 1 mL of NaCl 0.9% before being spun down again and re-suspended in 250 μL NaCl 0.9%. From this, 10-fold dilution series were prepared and 10 μL samples were spot-plated in triplicate onto LB-agar. From the undiluted sample, 100 μL samples were also plated, i.e., giving a detection limit of 10 CFU/mL.

As for `CCCCCCCC(=O)NCC[C@@H]1NC(=O)[C@H](CCN)NC(=O)[C@H](CCCNC(=N)N)NC(=O)[C@H](Cc2ccc3ccccc3c2)NC(=O)[C@H](CCN)NC(=O)[C@H](CC(N)=O)NC(=O)[C@H](CCN)NC(=O)[C@H](Cc2ccc3ccccc3c2)NC(=O)COCCOCCNC1=O` [(C8)^5] (cyclo([Dab][2Nal]R[Dab][Dab](Octanoyl)[AEEA][2Nal][Dab]N)), the “Minimum inhibitory concentration, SA” value with S. aureus ATCC 29213 came out at 8 µg/mL (≈ 5.99 µM). The “%B at peak of elution in analytical HPLC (hydrophobicity)” value in series [1] amounted to 69%; in series [1] (listed as (C8)^7), 71%. The “bacterial cell count over the first 5 h” value with P. aeruginosa ATCC 27853 (1 × MIC (8 μg/mL), 0–5 h, MHB-II, 37 °C) is on record as “did not change”. Moreover, the “log reduction of cell count within first hour of treatment” value with P. aeruginosa ATCC 27853 (5 × MIC ((C8)^5 40 μg/mL; colistin 2.5 μg/mL), 1 h, MHB-II, 37 °C, shaking, n = 3) turned out to be 4.5 log. Moreover, the “cell count / growth after 24 h” value with P. aeruginosa ATCC 27853 (5 × MIC ((C8)^5 40 μg/mL; colistin 2.5 μg/mL), 24 h, detection limit 10 CFU/mL) is 10^4 CFU/mL. Besides, the “killing of the bacteria in the original inoculum” value in the series on P. aeruginosa ATCC 27853 (ATCC 27853, 1 h, 40 μg/mL) is > 99.9%.
